Results: the supplement of paper PMC11451515

System: NOMO1
Test: cell viability relative to DMSO control; higher = less cytotoxic
Settings: 48 h
Outline: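 NOMO1, SEM and P12-Ichikawa leukemia cells spent at least four passages adapting to each medium before use. They were seeded at 500 cells/well (NOMO1, SEM) or 1000 cells/well (P12-Ichikawa) in 5 μl in 1536-well plates and pin-dosed with library compounds in DMSO at 11 threefold steps from 47 μM down to 0.79 nM. After 48 h at 37°C, CellTiter-Glo One luminescence was read. Viability is reported as a percentage of the DMSO wells on each plate, with cell-free wells as background.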

[1] = HPLM + 10% dialyzed FBS, 0.000781 µM
[2] = HPLM + 10% dialyzed FBS, 0.00234 µM
[3] = HPLM + 10% dialyzed FBS, 0.00702 µM
[4] = HPLM + 10% dialyzed FBS, 0.0211 µM
[5] = HPLM + 10% dialyzed FBS, 0.0632 µM
[6] = HPLM + 10% dialyzed FBS, 0.19 µM
[7] = HPLM + 10% dialyzed FBS, 0.569 µM
[8] = HPLM + 10% dialyzed FBS, 1.71 µM
[9] = HPLM + 10% dialyzed FBS, 5.12 µM
[10] = HPLM + 10% dialyzed FBS, 15.4 µM
[11] = HPLM + 10% dialyzed FBS, 46.1 µM
[12] = RPMI 5 mM glucose + 10% FBS, 0.000781 µM
[13] = RPMI 5 mM glucose + 10% FBS, 0.00234 µM
[14] = RPMI 5 mM glucose + 10% FBS, 0.00702 µM
[15] = RPMI 5 mM glucose + 10% FBS, 0.0211 µM
[16] = RPMI 5 mM glucose + 10% FBS, 0.0632 µM
[17] = RPMI 5 mM glucose + 10% FBS, 0.19 µM
[18] = RPMI 5 mM glucose + 10% FBS, 0.569 µM
[19] = RPMI 5 mM glucose + 10% FBS, 1.71 µM
[20] = RPMI 5 mM glucose + 10% FBS, 5.12 µM
[21] = RPMI 5 mM glucose + 10% FBS, 15.4 µM
[22] = RPMI 5 mM glucose + 10% FBS, 46.1 µM
[23] = RPMI 5 mM glucose + 10% dialyzed FBS, 0.000781 µM
[24] = RPMI 5 mM glucose + 10% dialyzed FBS, 0.00234 µM
[25] = RPMI 5 mM glucose + 10% dialyzed FBS, 0.00702 µM
[26] = RPMI 5 mM glucose + 10% dialyzed FBS, 0.0211 µM
[27] = RPMI 5 mM glucose + 10% dialyzed FBS, 0.0632 µM
[28] = RPMI 5 mM glucose + 10% dialyzed FBS, 0.19 µM
[29] = RPMI 5 mM glucose + 10% dialyzed FBS, 0.569 µM
[30] = RPMI 5 mM glucose + 10% dialyzed FBS, 1.71 µM
[31] = RPMI 5 mM glucose + 10% dialyzed FBS, 5.12 µM
[32] = RPMI 5 mM glucose + 10% dialyzed FBS, 15.4 µM
[33] = RPMI 5 mM glucose + 10% dialyzed FBS, 46.1 µM

SMILES	cell viability [1]	cell viability [2]	cell viability [3]	cell viability [4]	cell viability [5]	cell viability [6]	cell viability [7]	cell viability [8]	cell viability [9]	cell viability [10]	cell viability [11]	cell viability [12]	cell viability [13]	cell viability [14]	cell viability [15]	cell viability [16]	cell viability [17]	cell viability [18]	cell viability [19]	cell viability [20]	cell viability [21]	cell viability [22]	cell viability [23]	cell viability [24]	cell viability [25]	cell viability [26]	cell viability [27]	cell viability [28]	cell viability [29]	cell viability [30]	cell viability [31]	cell viability [32]	cell viability [33]
COc1cc(N2CCN(C)CC2)ccc1Nc1nc(N)c(C(=O)c2c(Cl)cccc2Cl)s1	117%	105%	119%	105%	110%	116%	126%	128%	107%	89%	82.7%	107%	117%	103%	98.7%	103%	118%	102%	105%	104%	98.6%	87.3%	108%	107%	108%	116%	96.6%	114%	103%	109%	102%	105%	89.7%
CC(C)[C@H](O)C(=O)N[C@@H](C)C(=O)N[C@@H]1C(=O)N(C)CCc2ccccc21	93.5%	132%	111%	113%	113%	125%	109%	101%	101%	92.6%	76.7%	98.7%	119%	117%	114%	117%	98.5%	125%	105%	108%	110%	92.5%	112%	109%	123%	112%	110%	114%	108%	108%	112%	103%	97.2%
O=C(O)c1cccnc1	121%	114%	130%	118%	115%	123%	107%	85.2%	49.4%	27.4%	13.2%	121%	123%	121%	102%	124%	116%	112%	101%	85%	23.7%	14.4%	116%	117%	116%	117%	118%	122%	117%	98.6%	61.5%	22.1%	10%
COc1cc2cc(c1Cl)N(C)C(=O)C[C@H](OC(=O)C(C)C)[C@]1(C)O[C@@H]1[C@H](C)[C@@H]1C[C@@](O)(NC(=O)O1)[C@H](OC)/C=C/C=C(\C)C2	55.5%	53.1%	53.3%	44.3%	49%	41.8%	42.1%	41.8%	34.9%	35.7%	13%	32.8%	29.5%	33.7%	30.8%	27.3%	23.5%	24%	19%	22.4%	26.4%	9.73%	37.2%	40.4%	36.2%	32.1%	22.9%	22.2%	25.4%	22.4%	25.9%	27.8%	11.8%
COC(=O)[C@H](Cc1ccccc1)NC(=O)[C@@H](N)CC(=O)O	110%	124%	116%	112%	128%	115%	113%	112%	93.6%	96.1%	94.9%	108%	121%	125%	122%	110%	126%	115%	107%	112%	105%	108%	126%	117%	120%	112%	112%	125%	106%	122%	70.4%	116%	108%
N#Cc1cc(NC(=O)Nc2nnc(-c3ccncc3)s2)ccc1-c1cn[nH]c1	117%	118%	115%	110%	116%	114%	113%	130%	121%	123%	106%	108%	100%	114%	124%	114%	115%	99.6%	114%	105%	127%	101%	–	–	–	–	–	–	–	–	–	–	–
CCC[C@H](Nc1nc(-c2ccc(NC(=O)NCC)c(OC)c2)ncc1C)c1cccnc1	119%	109%	115%	126%	47.8%	41.7%	44.2%	48.7%	45.8%	48.4%	39.7%	114%	112%	129%	115%	50%	31.5%	33.8%	26.4%	27.8%	30.9%	25.7%	105%	120%	122%	125%	34.6%	35.3%	39.2%	31.2%	23.9%	31.1%	28.7%
O=c1oc2cc(O)ccc2s1	109%	128%	120%	107%	114%	110%	110%	95.8%	101%	110%	90.3%	109%	117%	130%	108%	105%	116%	108%	108%	115%	102%	98.3%	98.1%	116%	117%	119%	103%	104%	112%	105%	101%	107%	109%
CCc1nc(N)nc(N)c1-c1ccc(Cl)cc1	78.8%	118%	93.3%	92.8%	105%	108%	96.1%	47.7%	48%	44.6%	38.7%	81.1%	99.5%	84.8%	83.7%	86.1%	86.4%	90.6%	90.5%	89.9%	89.1%	89.6%	84%	94.3%	90.3%	100%	106%	104%	96.8%	104%	90.2%	56.3%	35.3%
CN(C[C@@H]1COCCO1)[S+]([O-])(=O)NC2=CC3=C(C=C2)\C=C/C4=C(C=C(C=N4)C5=C[N](C)N=C5)C3=O	89.6%	107%	92.5%	92.1%	84.5%	72.2%	62.2%	47.1%	41.1%	26.2%	26.6%	92.2%	101%	90.6%	114%	93.8%	91.2%	86.9%	57.1%	49.5%	35.2%	33.3%	84.5%	104%	98.4%	87.4%	99.2%	91.9%	73.7%	52.1%	48.9%	39.8%	31.6%
CCCCN1CCC(CNC(=O)c2c3n(c4ccccc24)CCCO3)CC1	104%	107%	111%	115%	112%	114%	132%	123%	125%	110%	89.4%	95.8%	98.5%	103%	111%	118%	109%	117%	106%	108%	117%	90.5%	96.5%	110%	105%	114%	110%	106%	117%	104%	113%	124%	90.1%
C[C@@H]1CC[C@@]2(CC[C@]3(C)\C(=C/C[C@@H]4[C@@]5(C)C[C@@H](O)[C@H](O)[C@@](C)(CO)[C@@H]5CC[C@@]34C)[C@@H]2[C@H]1C)C(O)=O	120%	127%	121%	109%	109%	123%	123%	106%	138%	120%	130%	104%	99.9%	117%	107%	101%	104%	110%	114%	109%	119%	117%	104%	119%	120%	115%	122%	111%	125%	108%	120%	114%	120%
CCCC[S+](=N)([O-])CCC(N)C(=O)O (stereo not given)	120%	122%	138%	138%	157%	131%	150%	142%	148%	89.2%	28.7%	–	–	–	–	–	–	–	–	–	–	–	–	–	–	–	–	–	–	–	–	–	–
COc1cc(N2CCC(N3CCN(C)CC3)CC2)ccc1Nc1ncc(Cl)c(Nc2ccccc2[S+](=O)([O-])C(C)C)n1	69.2%	80%	98.6%	118%	147%	124%	130%	65.1%	55.6%	38.7%	17.1%	87.2%	73.3%	125%	136%	133%	134%	130%	75.9%	64.9%	61.5%	49.6%	78.3%	66.3%	103%	113%	146%	142%	131%	84.3%	61.4%	60.4%	59.1%
COCC(=O)NC/C=C/c1ccc2ncnc(Nc3ccc(Oc4ccc(C)nc4)c(C)c3)c2c1	84.6%	89.4%	109%	90.8%	92.1%	57.3%	65.8%	52.9%	37%	42.4%	34.2%	94.2%	96.4%	107%	95%	90.6%	81.3%	78%	49.7%	60.2%	50.1%	52.8%	87.7%	90.6%	93.9%	99.8%	97.4%	92.2%	78.4%	71.2%	57.6%	66.8%	41%
CC1(C)CCC(C)(C)c2cc(NC(=O)c3ccc(C(=O)O)cc3)ccc21	91.4%	91%	98.5%	111%	101%	100%	98.1%	109%	79.9%	92.9%	60.7%	85.7%	90.6%	89.8%	97.5%	95.4%	97.3%	99.8%	101%	98.5%	94.4%	76.1%	99.8%	91.9%	91.3%	89.8%	97.7%	90.2%	95.3%	93%	88.2%	84.5%	75.9%
